Assay [1] relates to Mycobacterium smegmatis SG 987. The class given is cell-based.
Assay [2] relates to Mycobacterium tuberculosis clinical isolate 6341. The class given is cell-based.
The next assay has as its system M. fortuitum B. The conditions noted are these: Mycolicibacterium fortuitum, read-out: MIC M.fortuitum.
Another assay concerns M. vaccae IMET 10 10670. The format is cell-based.
The subject of assay [3] is Mycobacterium tuberculosis clinical isolate 6374. The format is cell-based.
The subject of assay [4] is Mycobacterium tuberculosis H37Rv and clinical isolates 6341 and 6374. Briefly: MIC and MBC, classical method, over several strains. The format is cell-based. Conditions: for MBC: read-out: MBC (µg/mL) mean; for MIC: read-out: MIC (µg/mL) mean.
The subject of assay [5] is Mycobacterium tuberculosis H37Rv. Briefly: Murine TB model (experimental hematogenously disseminated tuberculosis). The class given is in vivo, BALB/c line mice. The conditions noted are these: for Survival of animals: Groups 4/5, 25 mg/kg oral.
[6] abbreviates: Mycolicibacterium smegmatis, SG987; read-out: MIC M. smegmatis.
Where [7] appears, read: Mycolicibacterium vaccae, IMET1010670; read-out: MIC M.vaccae.
Setting [8] is: Mycolicibacterium smegmatis, SG987, read-out: MIC M. smegmatis.
[9] abbreviates: Mycolicibacterium vaccae, IMET1010670, read-out: MIC M.vaccae.
Where [10] appears, read: 25 mg/kg orally, 42 days after inoculation of the culture medium.

Values after ≈ are worked out from the molar mass of the structure shown. Read-outs that look alike come from different tables or passages of the source.

In the case of `O=c1nc(N2CCC3(CC2)OCCO3)sc2c([N+](=O)[O-])cc(C(F)(F)F)cc12` [Compound 1, 2-(1,4-dioxa-8-azaspiro[4.5]dec-8-yl)-8-nitro-6-(trifluoromethyl)-1,3-benzothiazin-4-one], the MIC was 12.5 ng/mL (≈ 0.0299 µM) in assay [1] (setting [6]); 1.56 µg/mL (≈ 3.74 µM) in assay [2]; 12.5 ng/mL (≈ 0.0299 µM) in the assay with M. fortuitum B; 3.12 ng/mL (≈ 0.00748 µM) in the assay with M. vaccae IMET 10 10670 (setting [7]); 1.56 µg/mL (≈ 3.74 µM) in assay [3]; 1.17 µg/mL (≈ 2.8 µM) in assay [4]. Moreover, the results for the MBC in assay [2], in assay [3] and in assay [4] were 2.34 µg/mL (≈ 5.61 µM), 2.34 µg/mL (≈ 5.61 µM) and 1.75 µg/mL (≈ 4.19 µM), respectively.

Turning to `O=c1nc(N2CCC3(CC2)OCCO3)sc2c([N+](=O)[O-])cc([N+](=O)[O-])cc12` [Compound 3, 2-(1,4-dioxa-8-azaspiro[4.5]dec-8-yl)-6,8-dinitro-1,3-benzothiazin-4-one], the MIC in assay [1] (setting [8]) amounted to 200 ng/mL (≈ 0.507 µM); with M. fortuitum B it was 6 ng/mL (≈ 0.0152 µM); with M. vaccae IMET 10 10670 (setting [9]), 1.5 ng/mL (≈ 0.0038 µM).

Consider `CC1COC2(CCN(c3nc(=O)c4cc([N+](=O)[O-])cc([N+](=O)[O-])c4s3)CC2)O1` (stereo not drawn) [Compound 4, 2-(2-methyl-1,4-dioxa-8-azaspiro[4.5]decyl)-6,8-dinitro-1,3-benzothiazin-4-one], for which the MIC in assay [1] (setting [8]) was 200 ng/mL (≈ 0.49 µM); with M. fortuitum B, 3 ng/mL (≈ 0.00735 µM); in the assay with M. vaccae IMET 10 10670 (setting [9]) it was 3 ng/mL (≈ 0.00735 µM).

For `CC1OC2(CCN(c3nc(=O)c4cc(C(F)(F)F)cc([N+](=O)[O-])c4s3)CC2)OC1C` (stereo not drawn) [Compound 5, 2-(2,3-dimethyl-1,4-dioxa-8-azaspiro[4.5]dec-8-yl)-8-nitro-6-(trifluoromethyl)-1,3-benzothiazin-4-one], the MIC in assay [1] (setting [6]) is 6.25 ng/mL (≈ 0.014 µM); in assay [2], below 0.39 µg/mL; with M. fortuitum B it was 0.078 ng/mL (≈ 0.000175 µM); with M. vaccae IMET 10 10670 (setting [7]), 0.078 ng/mL (≈ 0.000175 µM); in assay [3], below 0.39 µg/mL; in assay [4], 0.39 µg/mL (≈ 0.876 µM). The values for the MBC in assay [2], in assay [3] and in assay [4] were 0.39 µg/mL (≈ 0.876 µM), 0.39 µg/mL (≈ 0.876 µM) and 0.45 µg/mL (≈ 1.01 µM), respectively.

Regarding `O=c1nc(N2CCC3(CC2)OCCCCO3)sc2c([N+](=O)[O-])cc([N+](=O)[O-])cc12` [Compound 7, 2-(7,12-dioxa-3-azaspiro[5.6]dodec-3-yl)-6,8-dinitro-1,3-benzothiazin-4-one], the MIC in assay [1] (setting [8]) stood at 780 ng/mL (≈ 1.85 µM); with M. fortuitum B, 3 ng/mL (≈ 0.0071 µM); with M. vaccae IMET 10 10670 (setting [9]), 3 ng/mL (≈ 0.0071 µM).

As to `Cc1c([N+](=O)[O-])cc2c(=O)nc(N3CCC4(CC3)OCCO4)sc2c1[N+](=O)[O-]` [Compound 8, 2-(1,4-dioxa-8-azaspiro[4.5]dec-8-yl)-7-methyl-6,8-dinitro-1,3-benzothiazin-4-one], the MIC amounted to 400 ng/mL (≈ 0.979 µM) in assay [1] (setting [8]), 25 ng/mL (≈ 0.0612 µM) with M. fortuitum B and 25 ng/mL (≈ 0.0612 µM) with M. vaccae IMET 10 10670 (setting [9]).

`N#Cc1cc([N+](=O)[O-])c2sc(N3CCC4(CC3)OCCO4)nc(=O)c2c1` [Compound 9, 2-(1,4-dioxa-8-azaspiro[4.5]dec-8-yl)-8-nitro-4-oxo-1,3-benzothiazine-6-carbonitrile]: the MIC in assay [1] (setting [6]) was determined as 50 ng/mL (≈ 0.134 µM); in assay [2], 0.78 µg/mL (≈ 2.08 µM); in the assay on M. fortuitum B it was 25 ng/mL (≈ 0.0668 µM); in the assay with M. vaccae IMET 10 10670 (setting [7]) it was 3.12 ng/mL (≈ 0.00833 µM); in assay [3], 0.58 µg/mL (≈ 1.55 µM); in assay [4], 0.52 µg/mL (≈ 1.39 µM). The MBC in assay [2] turned out to be 1.17 µg/mL (≈ 3.13 µM); in assay [3], 0.78 µg/mL (≈ 2.08 µM); in assay [4] it was 0.75 µg/mL (≈ 2 µM).

Regarding `CC1COC2(CCN(c3nc(=O)c4cc(C#N)cc([N+](=O)[O-])c4s3)CC2)O1` (stereo not drawn) [Compound 10, 2-(2-methyl-1,4-dioxa-8-azaspiro[4.5]dec-8-yl)-8-nitro-4-oxo-1,3-benzothiazine-6-carbonitrile], the MIC stood at 25 ng/mL (≈ 0.0644 µM) in assay [1] (setting [6]); 0.58 µg/mL (≈ 1.49 µM) in assay [2]; 12.5 ng/mL (≈ 0.0322 µM) in the assay with M. fortuitum B; 3.12 ng/mL (≈ 0.00803 µM) in the assay with M. vaccae IMET 10 10670 (setting [7]); 0.39 µg/mL (≈ 1 µM) in assay [3]; 0.45 µg/mL (≈ 1.16 µM) in assay [4]. In addition, the MBC in assay [2] came out at 0.78 µg/mL (≈ 2.01 µM); in assay [3], 0.78 µg/mL (≈ 2.01 µM); in assay [4], 0.71 µg/mL (≈ 1.83 µM).

As for `NNC(=O)c1ccncc1` [Isoniazid (INH), Isoniazid, reference compound], the MBC in assay [2], in assay [2] (read-out: MBC (µg/mL) mean), in assay [3] and in assay [3] (read-out: MBC (µg/mL) mean) was above 100 µg/mL throughout. Besides, the MIC in assay [2], in assay [2] (read-out: MIC (µg/mL) mean), in assay [3] and in assay [3] (read-out: MIC (µg/mL) mean) was above 100 µg/mL each time. The Injury index in assay [5] (25 mg/kg orally, daily 6 times per week, four-score scale, liver, spleen and lungs) is 1,2. The “Efficacy index (%)” value in assay [5] (25 mg/kg orally, 100% - injury index of group / injury index of control x 100) was 70,5%. The “right lung Culture, without dilution CFU” value in assay [5] (setting [10]) is reported as “∼ 40 CFU”. Further, in assay [5] (setting [10]), the “spleen Culture, without dilution CFU” value was “∼ 40 CFU”. Moreover, the Survival of animals was determined as 10 in assay [5] (day of treatment 1, of 10 animals); 10 in assay [5] (day of treatment 2, of 10 animals); 10 in assay [5] (day of treatment 3, of 10 animals); 10 in assay [5] (day of treatment 4, of 10 animals); 10 in assay [5] (day of treatment 5, of 10 animals); 10 in assay [5] (day of treatment 6, of 10 animals). The Survival of animals is given as 10 in assay [5] (day of treatment 7, of 10 animals); 10 in assay [5] (day of treatment 8, of 10 animals); 10 in assay [5] (day of treatment 9, of 10 animals); 10 in assay [5] (day of treatment 10, of 10 animals); 10 in assay [5] (day of treatment 11, of 10 animals); 10 in assay [5] (day of treatment 12, of 10 animals). Further, the Survival of animals was 10 in assay [5] (day of treatment 13, of 10 animals); 10 in assay [5] (day of treatment 14, of 10 animals); 10 in assay [5] (day of treatment 15, of 10 animals); 10 in assay [5] (day of treatment 16, of 10 animals); 10 in assay [5] (day of treatment 17, of 10 animals); 10 in assay [5] (day of treatment 18, of 10 animals). For the same molecule, the Survival of animals in assay [5] (day of treatment 19, of 10 animals) came to 10; in assay [5] (day of treatment 20, of 10 animals) it was 10; in assay [5] (day of treatment 21, of 10 animals), 10; in assay [5] (day of treatment 22, of 10 animals) it was 10; in assay [5] (day of treatment 23, of 10 animals), 10; in assay [5] (day of treatment 24, of 10 animals) it was 10. For the same molecule, the Survival of animals in assay [5] (day of treatment 25, of 10 animals) is on record as 10; in assay [5] (day of treatment 26, of 10 animals), 10; in assay [5] (day of treatment 27) it was 100%.

These data come from patent EP2181998B1, “New benzothiazinone derivative and its use as antibacterial agent” (priority 2006, dated 2007).
